From the supplement of paper PMC10307832

What was measured:
Test in all cases: relative viability (nuclei count vs DMSO), 5 days (fraction); higher = more cells survive
Carboplatin + Crizotinib = compound: C1CC(C1)(C(=O)O)C(=O)O.[NH2-].[NH2-].[Pt+2] [Carboplatin] + C[C@@H](Oc1cc(-c2cnn(C3CCNCC3)c2)cnc1N)c1c(Cl)ccc(F)c1Cl [Crizotinib] (partner 1 µM)
How it was run: (§1)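 Relative viability was taken as the ratio of nuclei in treated wells to nuclei in vehicle wells. Lung cancer cell lines in 1536-well plates received compounds by pin tool one day after seeding, either one drug alone or a fixed anchor-drug dose plus five library-drug doses (not always all listed) in √10 steps. Nuclei were counted on 4× images after 5 days of treatment, and values are medians of duplicate plates.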

GSK126 + Luminespib = compound: CC[C@H](C)N1C=C(C2=C(C=C(C=C21)C3=CN=C(C=C3)N4CCNCC4)C(=O)NCC5=C(C=C(NC5=O)C)C)C [GSK126] + CCNC(=O)c1noc(-c2cc(C(C)C)c(O)cc2O)c1-c1ccc(CN2CCOCC2)cc1 [Luminespib] (partner 0.01 µM)
How it was run: as §1

MLN4924 + Luminespib = compound: NS(=O)(=O)OC[C@@H]1C[C@@H](n2ccc3c(N[C@H]4CCc5ccccc54)ncnc32)C[C@@H]1O [MLN4924] + CCNC(=O)c1noc(-c2cc(C(C)C)c(O)cc2O)c1-c1ccc(CN2CCOCC2)cc1 [Luminespib] (partner 0.01 µM)
How it was run: as §1

Carboplatin + Decitabine = compound: C1CC(C1)(C(=O)O)C(=O)O.[NH2-].[NH2-].[Pt+2] [Carboplatin] + Nc1ncn([C@H]2C[C@H](O)[C@@H](CO)O2)c(=O)n1 [Decitabine] (partner 2 µM)
How it was run: as §1

## UMC-11
Carboplatin + Crizotinib; first compound 0.08 µM
  relative viability: 0.721
Carboplatin + Crizotinib; first compound 0.253 µM
  relative viability: 0.652
Carboplatin + Crizotinib; first compound 0.8 µM
  relative viability: 0.515
Carboplatin + Crizotinib; first compound 2.53 µM
  relative viability: 0.484
Carboplatin + Crizotinib; first compound 8 µM
  relative viability: 0.301
GSK126 + Luminespib; first compound 0.08 µM
  relative viability: 1.19
GSK126 + Luminespib; first compound 0.253 µM
  relative viability: 1.07
GSK126 + Luminespib; first compound 0.8 µM
  relative viability: 1.04
GSK126 + Luminespib; first compound 2.53 µM
  relative viability: 1.07
GSK126 + Luminespib; first compound 8 µM
  relative viability: 1.31
MLN4924 + Luminespib; first compound 0.04 µM
  relative viability: 0.598
MLN4924 + Luminespib; first compound 0.1265 µM
  relative viability: 0.351
MLN4924 + Luminespib; first compound 0.4 µM
  relative viability: 0.285
MLN4924 + Luminespib; first compound 1.265 µM
  relative viability: 0.17
MLN4924 + Luminespib; first compound 4 µM
  relative viability: 0.182
Carboplatin + Decitabine; first compound 0.08 µM
  relative viability: 0.596
Carboplatin + Decitabine; first compound 0.253 µM
  relative viability: 0.626
Carboplatin + Decitabine; first compound 0.8 µM
  relative viability: 0.482
Carboplatin + Decitabine; first compound 2.53 µM
  relative viability: 0.576
Carboplatin + Decitabine; first compound 8 µM
  relative viability: 0.418
